These results are taken from paper PMC5964033 (Journal of inorganic biochemistry, 2018).

Where “and” joins values, the source holds several entries; their conditions need not be identical. Equal values may be shown once. Entries after “also recorded” stand apart in the source; their conditions may differ. Read-outs that look alike come from different tables or passages of the source.

In series [1] the target is T1, CYP2J2 (Homo sapiens, UniProt P51589).
T1 sequence (P51589 1-502): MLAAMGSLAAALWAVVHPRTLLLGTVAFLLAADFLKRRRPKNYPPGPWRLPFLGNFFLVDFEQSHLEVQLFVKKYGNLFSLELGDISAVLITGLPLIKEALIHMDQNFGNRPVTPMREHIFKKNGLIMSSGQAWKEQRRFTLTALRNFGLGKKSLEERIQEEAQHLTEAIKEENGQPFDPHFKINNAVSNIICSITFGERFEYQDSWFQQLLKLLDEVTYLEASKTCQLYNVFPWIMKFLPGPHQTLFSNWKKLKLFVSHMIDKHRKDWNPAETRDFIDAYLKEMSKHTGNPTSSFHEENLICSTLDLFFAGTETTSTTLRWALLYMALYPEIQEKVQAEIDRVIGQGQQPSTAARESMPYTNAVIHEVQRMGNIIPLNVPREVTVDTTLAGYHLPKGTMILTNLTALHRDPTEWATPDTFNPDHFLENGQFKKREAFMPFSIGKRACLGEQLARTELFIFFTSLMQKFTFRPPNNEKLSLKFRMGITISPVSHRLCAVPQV
The conditions noted are these: at saturating concentrations, CYP2J2-NDs.

The target in series [2] is T1, CYP2J2. As to the kind of experiment: Identification of pCB metabolites formed by CYP2J2. In kind it is in vitro ADME. The conditions noted are these: major mono-oxygenated product(s) of CYP2J2 metabolism.
Series [3] concerns the target T1, CYP2J2. The conditions noted are these: formation of mono-oxygenated product; for Vmax: 5–60 µM pCB, 30 min, 37°C.
The target in series [4] is T1, CYP2J2. As to the kind of experiment: Inhibition of CYP2J2-mediated AEA metabolism by pCBs. The conditions noted are these: for Type of AEA Metabolism Inhibition / Ki: 30 µM pCB; for Type of AEA Metabolism Inhibition: model of inhibition; for Ki: CYP2J2-ND/CPR; for apparent Vmax of AEA metabolism, % of the uninhibited enzyme: in the presence of 30 µM pCB. In kind it is biochemical.

Series [5] concerns the target T1, CYP2J2. As to the kind of experiment: biochemical.
Series [6] concerns the target T1, CYP2J2. Type of series: in vitro ADME.
Another series concerns other animal models. The conditions noted are these: cited from earlier work.
The next series concerns humans. The conditions noted are these: cited from earlier work.
Series [7] has as its target T1, CYP2J2. The conditions noted are these: directly from Soret titration or through inhibition of ebastine binding.
Series [8] relates to fatty acid amide hydrolase (FAAH). The conditions noted are these: cited from earlier work.
A further series has as its system Rhesus monkeys. The conditions noted are these: cited from earlier work.
Substrate in series [9]: CCCCCc1cc(O)c(C/C=C(\C)CCC=C(C)C)c(O)c1
The series is described as follows: not read. The conditions noted are these: other: formation of mono-oxygenated product; pH 7.4; 37.0 °C.

Substrate in series [10]: CCCCC/C=C\C/C=C\C/C=C\C/C=C\CCCC(=O)NCCO
The series is described as follows: not read. In kind it is in vitro ADME. The conditions noted are these: other: total EET-EAs formed, CYP2J2-ND/CPR; pH 7.4.

[11] abbreviates: read-out: Ki, AEA Metabolism Inhibition.

What is called Ki is the equilibrium dissociation constant of an inhibitor or competing ligand from its target. In general, Kd refers to the constant that tells how readily two partners part at equilibrium. On to `CCCCCc1cc(O)c(C/C=C(\C)CCC=C(C)C)c(O)c1` [CBG, cannabigerol], for which the high-spin shift at CYP2J2 [1] amounted to 48%. Moreover, the “Metabolite(s)” value at CYP2J2 [2] was -1”-OH. Also, the Vmax at CYP2J2 [3] is 123 ± 14 pmol · min^−1 · nmolCYP2J2^−1. Further, the “Type of AEA Metabolism Inhibition” value at CYP2J2 [4] is “competitively; also recorded: Competitive”. Moreover, on CYP2J2 [4] (Ki, AEA Metabolism Inhibition), the affinity corresponds to a Ki of 10.8 ± 1.4 µM. The same molecule registered a Kd at CYP2J2 [5] of 11.1 ± 1.2 µM.

In the case of `CCCCCc1cc(O)c2c(c1)OC(C)(CCC=C(C)C)C=C2` (stereo not drawn) [CBC, cannabichromene], the high-spin shift result at CYP2J2 [1] was “did not produce a significant change in the high-spin content”. Also, the “Metabolite(s)” value on CYP2J2 [2] is -1”-OH. In addition, at CYP2J2 [3], the Vmax is 371 ± 134 pmol · min^−1 · nmolCYP2J2^−1. Besides, at CYP2J2 [4], the “Type of AEA Metabolism Inhibition” value is listed as “Noncompetitive” and the “apparent Vmax of AEA metabolism, % of the uninhibited enzyme” value is recorded as 20–45%. This molecule also returned a Ki on CYP2J2 [4] (Ki, AEA Metabolism Inhibition) of 21.1 ± 1.4 µM.

With `CCCCC/C=C\C/C=C\C/C=C\C/C=C\CCCC(=O)NCCO` [AEA, anandamide], on CYP2J2 [1], the high-spin shift entry is “did not produce a significant change in the high-spin content”. The “Metabolite(s)” value at CYP2J2 [6] (AEA metabolism by CYP2J2-NDs) is reported as “EET-EAs”. Moreover, the Vmax at CYP2J2 [6] (total EET-EAs formed, CYP2J2-ND/CPR) is 135 ± 14.0 pmol · min^−1 · nmolCYP2J2^−1 and 135 ± 14 pmol · min^−1 · nmolCYP2J2^−1.

The Km is the substrate concentration at which the rate is half of its maximum. Consider `CCCCCc1cc(O)c2c(c1)OC(C)(C)[C@@H]1CCC(C)=C[C@@H]21` [Δ9-THC, Δ9-tetrahydrocannabinol, reference compound], for which the high-spin shift entry on CYP2J2 [1] was “did not produce a significant change in the high-spin content”. Moreover, in the series with other animal models, the “effect on heart rate in other animal models” value was “induces bradycardia”. For the same molecule, the “effect on heart rate in humans” value with humans was “induces tachycardia”. In addition, the “Metabolite(s)” value at CYP2J2 [2] is on record as -1’-OH. Moreover, at CYP2J2 [3], the Km was 11.9 ± 4.8 µM and the Vmax was 211 ± 28 pmol · min^−1 · nmolCYP2J2^−1. For the same molecule, on CYP2J2 [4], the “Type of AEA Metabolism Inhibition” value is recorded as “Noncompetitive”; the “apparent Vmax of AEA metabolism, % of the uninhibited enzyme” value was 20% and 20–45%. For the same molecule, the inhibitory constant (Ki) on CYP2J2 [4] (setting [11]) is 9.86 ± 0.45 µM. The binding affinity entry on CYP2J2 [7] is reported as “weakest”.

Consider `CCCCCc1cc(O)c2c(c1)OC(C)(C)c1ccc(C)cc1-2` [CBN, cannabinol], for which the high-spin shift at CYP2J2 [1] is on record as 38%. Further, the “Metabolite(s)” value at CYP2J2 [2] was -1’-OH or -11-OH. Also, on CYP2J2 [4], the “Type of AEA Metabolism Inhibition” value was “Noncompetitive” and the “apparent Vmax of AEA metabolism, % of the uninhibited enzyme” value is on record as 20–45%. For the same molecule, the Ki at CYP2J2 [4] (Ki, AEA Metabolism Inhibition) turned out to be 19.4 ± 2 µM.

As to `C=C(C)[C@@H]1CCC(C)=C[C@H]1c1c(O)cc(CCCCC)cc1O` [CBD, cannabidiol, reference compound], the high-spin shift on CYP2J2 [1] stood at 32%. Moreover, the “Metabolite(s)” value on CYP2J2 [2] is recorded as -7-OH + -1”-OH. Besides, at CYP2J2 [3], the Vmax is 372 ± 100 pmol · min^−1 · nmolCYP2J2^−1. In addition, on CYP2J2 [4], the “Type of AEA Metabolism Inhibition” value is “Noncompetitive” and the “apparent Vmax of AEA metabolism, % of the uninhibited enzyme” value is 20–45%. At CYP2J2 [4] (Ki, AEA Metabolism Inhibition), this molecule came in with a Ki of 16.9 ± 1.1 µM. Besides, the “inhibition of FAAH” value in [8] is recorded as “weakly inhibited”. At CYP2J2 [5], this molecule showed a Kd of 11.5 ± 3 µM.

As to `CCCCCc1cc(O)c2c(c1)OC(C)(C)[C@@H]1CC=C(C)C[C@@H]21` [Δ8-THC, Δ8-tetrahydrocannabinol], the high-spin shift entry at CYP2J2 [1] is recorded as “did not produce a significant change in the high-spin content”. The “Metabolite(s)” value at CYP2J2 [2] is on record as -1’-OH. On CYP2J2 [3], the Km was 8.52 ± 5.3 µM and the Vmax is 80.9 ± 14.3 pmol · min^−1 · nmolCYP2J2^−1. In addition, on CYP2J2 [4], the “Type of AEA Metabolism Inhibition” value is listed as “Noncompetitive” and the “apparent Vmax of AEA metabolism, % of the uninhibited enzyme” value is given as 20–45%. Besides, the inhibitory constant (Ki) on CYP2J2 [4] (setting [11]) is 20.2 ± 1.9 µM.

In the case of `CCCCC(O)c1cc(O)c2c(c1)OC(C)(C)C1CC=C(C)CC21` (stereo not drawn) [Δ8-THC-1’-OH], the “induction of behavioral changes associated with cannabis use” value in the series with Rhesus monkeys was “least effective”.

B1: CYP2J2 (Homo sapiens) (protein)
chain: T1 sequence (P51589 1-502)
B1: the figures for the Km in “not read [9]” and in the series “not read [10]” were 8.27 ± 3.24 µM and 30.9 ± 7.3 µM, respectively.
